Counter-ions that a name gives are not always drawn.
Compound	melting point [°C]
COC(=O)C1=C(C)N=C(C)N(CCCCCNCCCc2ccccc2)C1c1ccc(F)c(F)c1 (stereo not drawn) (as salt: HCl) [Example 61, 6-(3,4-Difluorophenyl)-1,6-dihydro-5-methoxycarbonyl-2,4-dimethyl-1-(5-(3-phenylpropylamino)pentyl)pyrimidine]	95 to 97
COC(=O)C1=C(C)NC(=O)N(C(=O)NCCCN2CCC(c3ccccn3)CC2)C1c1ccc(F)c(F)c1 (stereo not drawn) (as salt: hydrochloride) [Example 21, 6-(3,4-Difluorophenyl)-5-methoxycarbonyl-4-methyl-2-oxo-1-{N-[4-(2-pyridyl)-piperidine-1-yl]propyl)carboxamido-1,2,3,6-tetrahydropyrimidine Dihydrochloride]	170 to 174
COC(=O)C1=C(C)N=C(C)N(CCCC(O)CN2CCC(c3ccccn3)CC2)C1c1ccc(F)c(F)c1 (single isomer, unassigned; (+)) (as salt: HCl) [Example 62, (+)-6-(3,4-Difluorophenyl)-1,6-dihydro-1-(4-hydroxy-5-(4-(2-pyridyl)piperidin-1-yl)pentyl)-5-methoxycarbonyl-2,4-dimethylpyrimidine]	163 to 165

Continued, values first:

melting point [°C]	Compound
53 to 57	COCN1C(C)=NC(C)=C(C(=O)NCCCN2CCC(C(=O)OC)(c3ccccc3)CC2)C1c1ccc(F)c(F)c1 (stereo not drawn)
152 to 155	CNC(=O)C1=C(C)N=C(C)N(CCCCCN2CCC(C(=O)OC)(c3ccccc3)CC2)C1c1ccc(F)cc1F (stereo not drawn) (as salt: HCl)
170 to 176	COC(=O)C1=C(C)N=C(C)N(CCCCCN2CCC(C(=O)OC)(c3ccccc3)CC2)C1c1ccc(F)c(F)c1 (stereo not drawn) (as salt: HCl) [Example 23, 6-(3,4-Difluorophenyl)-1,6-dihydro-5-methoxycarbonyl-1-(5-(4-methoxycarbonyl-4-phenylpiperidin-1-yl)-pentyl)-2,4-dimethylpyrimidine]

Reference: patent US6727257B1, “5-(heterocyclic alkyl)-6-aryl-dihydropyrimidines” (Synaptic Pharmaceutical Corporation, priority 1994, dated 2004)
